For data set [1], the system named is HCT116-S100A4 cells. Nature of the data set: Wound healing assay (directed migration). It is filed as cell-based, human. To be noted: 1 μM daily, 4 days. How it is done: (§1) For wound healing assay HCT116, SW620, LS174T, SW480 and DLD-1 cells were grown to form 60% confluent monolayers of cells in which a wound of about 300 μm width was inflicted with a sterile pipette tip. The medium was exchanged to remove non-adherent cells and the wounded monolayer was treated with 1 μM niclosamide or the respective amount of DMSO every 24 hours for 4 consecutive days. The progress of wound closure was monitored with microphotographs of 10× magnification taken with the Leica DM IL light microscope (Leica Microsystems) on day 0 and day 4. The wound healing experiment was performed three independent times.
(§2) (A) Cell migration of HCT116-vector and HCT116-S100A4 cells exposed to niclosamide treatment. Cells were treated with 1 μM niclosamide for 24 hours and migration rates were measured with Boyden chamber assay. […] Cells were treated with 1 μM niclosamide for 24 hours and cell invasion was determined by Boyden chamber assay. (C) Directed migration of HCT116-vector and HCT116-S100A4 cells exposed to niclosamide treatment analyzed by wound healing assay. […] Cells were treated daily with 1 μM niclosamide and cell viability was determined with MTT assay. […] (F) Quantification of colonies formed. Number of colonies (of more than 4 cells) was counted and normalized to solvent-treated HCT116-vector cells. […]

In data set [2] the test system is HCT116-vector cells. Nature of the data set: Wound healing assay (directed migration). As to conditions: 1 μM daily, 4 days. The class given is cell-based, human. The method, then: as §1, §2
For data set [3], the system named is SW620, LS174T, SW480 and DLD-1 cells. Nature of the data set: Wound healing assay (directed migration). It is filed as cell-based, human. To be noted: 1 μM daily, 4 days, vs respective solvent-treated control. How it is done: as §1
(A) S100A4 expression under niclosamide treatment. […] S100A4 expression was analyzed with qRT-PCR and immunoblot. […] Migration rates of cells treated with 1 μM niclosamide for 24 hours were determined in a Boyden chamber assay values were normalized to solvent-treated SW620 cells. […] Invaded cells in the lower chamber were counted and normalized to solvent-treated SW620 cells. Differences in solvent vs. niclosamide-treated cells were analyzed by Student's t test. […] The amount of viable cells per well was determined by MTT assay. […] (G) Quantification of colonies formed. Number of colonies (of more than 4 cells) was counted and normalized to solvent-treated SW620 cells. Differences in solvent vs. niclosamide-treated cells were analyzed by Student's t test. […]

Data set [4] relates to HCT116-S100A4 cells. Nature of the data set: Soft agar colony formation assay. It is filed as cell-based, human. To be noted: 1 μM, 7 days. The method, then:
(§3) Analysis of anchorage-independent cell proliferation was achieved by soft agar colony formation assay. A bottom layer containing 0.5% w/v agarose, RPMI-1640 medium, 10% FBS and 1 μM niclosamide or the respective amount of DMSO was added to a 6 cm Ø dish and incubated at room temperature under sterile conditions for 10 minutes. Onto the solidified bottom layer a top layer was added containing 8×10^3 cells, 0.33% w/v agarose, RPMI-1640 medium, 10% FBS and 1 μM niclosamide or the respective amount of DMSO. Cells were seeded as single cells into the soft agar and incubated in a humidified incubator at 37° C. and 5% CO2 for 7 days. Colony formation was visualized by 10× magnification for an overview and 40× magnification for single colonies in the Leica DM IL light microscope (Leica Microsystems). Colony quantification was achieved by counting cell colonies of more than 4 cells in 10 squares of […]. Colony formation experiments were repeated twice, each in triplicates.
(§4) (A) Cell migration of HCT116-vector and HCT116-S100A4 cells exposed to niclosamide treatment. Cells were treated with 1 μM niclosamide for 24 hours and migration rates were measured with Boyden chamber assay. (B) Cell invasion of HCT116-vector and HCT116-S100A4 cells exposed to niclosamide treatment. Cells were treated with 1 μM niclosamide for 24 hours and cell invasion was determined by Boyden chamber assay. (C) Directed migration of HCT116-vector and HCT116-S100A4 cells exposed to niclosamide treatment analyzed by wound healing assay. Wounds of 300 μM width were set in a 60% confluent monolayer of HCT116-vector or HCT116-S100A4 cells on day 1. Cells were treated daily with 1 μM niclosamide for 4 days. Microphotographs of day 4 are presented here with black lines indicating margins of entered wound of day 1; scale bar represents 200 μM. Data represents three independent experiments. (D) Adhesive cell proliferation of HCT116-vector and HCT116-S100A4 cells exposed to niclosamide treatment. Cells were treated daily with 1 μM niclosamide and cell viability was determined with MTT assay. (E) Anchorage-independent cell growth of HCT116-vector and HCT116-S100A4 cells exposed to niclosamide treatment. Cells were plated as single cells into 0.33% (w/v) agarose and treatment (solvent or 1 μM niclosamide) containing medium. After 7 days colonies were visualized by light microscopy at 10× (overview) and 40× (single colony) magnification. (F) Quantification of colonies formed. Number of colonies (of more than 4 cells) was counted and normalized to solvent-treated HCT116-vector cells. Differences of niclosamide vs. solvent-treated cells were analyzed by Student's t test. Data represent mean±SE (n>2) of at least two independent experiments each performed in at least duplicate.

In data set [5] the test system is HCT116-vector cells. Nature of the data set: Soft agar colony formation assay. The class given is cell-based, human. To be noted: 1 μM, 7 days. The method, then: as §3, §4
The conditions of data set [6]: mice chronically fed 200 mg/kg, two years observation time; cited from earlier work.

The values that follow come from patent publication US11331290B2, “Niclosamide for the treatment of cancer metastasis” (Max-Delbrück-Centrum für Molekulare Medizin in der …, priority 2011, dated 2022).

With `O=C(Nc1ccc([N+](=O)[O-])cc1Cl)c1cc(Cl)ccc1O` [niclosamide, 2′,5-dichloro-4′-nitrosalicylanilide], the wound closure result in the data set with HCT116-S100A4 cells [1] was “able to migrate into the wound and close the gap”; in the data set on HCT116-vector cells [2], “impaired”. In addition, in data set [3], the “directed migration (wound healing)” value was “impaired”. Further, the colony size entry in the data set on HCT116-S100A4 cells [4] and with HCT116-vector cells [5] was “clearly reduced” in each case. Besides, the “number of colonies, mean difference control vs niclosamide” value in the data set on HCT116-S100A4 cells [4] is 100.7%; in the data set with HCT116-vector cells [5], 93.2%. For the same compound, the “number of colonies, mean % of solvent-treated HCT116-vector cells” value in the data set on HCT116-S100A4 cells [4] (solvent control 105.8%) stood at 5.0%; with HCT116-vector cells [5], 6.8%. In addition, the adverse effects result in data set [6] is reported as “no adverse effects”.
